Data taken from article PMC5745756, “N,N-disubstituted azines attenuate LPS-mediated neuroinflammation in microglia and neuronal apoptosis via inhibiting MAPK signaling pathways” (BMC Neuroscience, 2017).

Columns and labels:
Type in all cases: cell-based, murine
[1] = tested on: NO production in LPS-activated BV-2 cells; test: Nitrite (Griess) assay of NO production in LPS-activated BV-2 cells
Protocol: […] or MTT assay was performed as described by our previous publication with slight modification. In order to measure MTT and NO production, BV-2 cells were plated into a 96-well plate at a density of 4 × 10^4 cells/well. […] Then, nitrite (a soluble oxidation product of NO) was detected in the culture media by using the Griess reaction. The supernatant (50 µL) was collected and mixed with an equal volume of Griess reagent (1% sulfanilamide in phosphoric acid and 0.1% N-1-napthylethylenediamine dihydrochloride). The absorbance was measured at 570 nm by using a microplate reader. Sodium nitrite was used to create a standard curve from which the NO2 concentration was calculated. The cell viability was evaluated by spectrophotometrically measuring the reduction of yellow 3-[4,5-dimethylthiazol-2-yl]-2,5-diphenyltetrazolium bromide (MTT) to purple formazan crystals. MTT was dissolved in DMEM, added to the culture plate containing cells at a final concentration of 0.5 mg/mL, and incubated for 1 h. The medium containing the MTT solution was carefully removed, and 200 µL DMSO was added to each well. After solubilizing the stained cells to produce a formazan-colored solution, the optical density (OD) was measured on a microplate reader at 570 nm, and the results were expressed as a percentage of the LPS-treated group. The same plate was used for the NO and MTT assays. The cell supernatant was used for the NO assay, and the plated cells were used for the MTT assay.
The NO production and cell viability of LPS-activated BV-2 cells were measured after treatment with azine derivatives using Griess reagent and MTT assay, respectively.

[2] = tested on: extracellular signal-regulated kinase (ERK); test: Western blot of LPS-induced ERK phosphorylation in BV-2 cells; conditions: 5–20 µM; LPS 30 min, similar pattern at 24 h
Protocol: BV-2 cells were seeded in a 6-well plate at a density of 6 × 10^5 cells/well and exposed to LPS (100 ng/mL) in the presence or absence of compound 3 for required time. After treatment, cells were collected and lysed in cell lysis buffer (50 mM Tris–HCl, pH 8.0, 0.1% SDS, 150 mM NaCl, 1% NP-40, 0.02% sodium azide, 0.5% sodium deoxycholate, 100 µg/mL PMSF, and […]) for 24 h at 4 °C. The protein content was measured using a Bradford assay. Equal amounts of protein (30 µg) were separated using SDS-PAGE and transferred to a nitrocellulose membrane. The membrane was blocked for 1 h with 5% skim milk in tris-buffered saline with Tween-20 (TBST) and then incubated for 12 h with primary antibodies against α-tubulin (Sigma-Aldrich Cat. no: T5168), iNOS (Bioscience Cat. no: 610333, COX-2 (Santa Cruz Cat. no: sc-1745), ERK (Cell Signaling Cat. no: 9107s), pERK (Cell Signaling Cat. no: 5013s), JNK (Cell Signaling Cat. no: 9252s), pJNK (Cell Signaling Cat. no: 4671s), p38 (Cell Signaling Cat. no: 8690s), and pP38 (Cell Signaling Cat. no: 9211s), followed by incubation for 1 h with horseradish peroxidase-conjugated secondary antibodies (Cell Signaling) at 15 °C. […]
Fig. 3 Effect of compound 3 on MAPK pathway in LPS-induced BV-2 cells. […] The phosphorylation of p38, JNK, and ERK was measured by western blotting (a–c). […]

[3] = tested on: N2a cells; test: Annexin V/PI staining (FACS) of N2a cells given conditioned media from BV-2 cells; conditions: CM of compound at each concentration tested (5, 10, 20 µM)
Protocol: An annexin V/PI apoptosis kit was used in accordance with the manufacturer’s instructions to quantify the percentage of cells undergoing apoptosis. First, BV-2 cells were incubated for 24 h with 5, 10, and 20 µM of compound 3 or LPS (100 ng/mL). Then, N2a cells were treated with the supernatant of the treated BV-2 cells and incubated. After 24 h, the cells were collected, washed twice with cold PBS, and re-suspended in binding buffer at a concentration of […]. Annexin V-FITC (5 µL) and PI (10 µL) were added, and the cells were incubated for 15 min at room temperature in the dark. Following incubation, 200 µL of binding buffer was added, and the cells were immediately analyzed by flow cytometry (FACSAriaIII; BD Biosciences, Franklin Lakes, NJ, USA). The flow cytometric analysis was performed using the Cell Quest software (BD Biosciences). The annexin V+/PI− cells and annexin V−/PI+ cells were used to identify apoptotic cells and necrotic cells, respectively. The procedure was repeated three times for each sample.
Fig. 4 Neuroprotection of compound 3 in LPS-activated microglia in N2a cells. […] An annexin V/PI apoptosis kit was used to quantify the percentage of cells undergoing apoptosis and necrosis (x-axis, annexin V; y-axis, PI) by using FACS analysis. […]

Compound: COc1cc(/C=C/C=N/N=C/C=C/c2ccc(O)c(OC)c2)ccc1O [Compound 3, 4,4′-(1E,1′E,3E,3′E)-3,3′-(hydrazine-1,2-diylidene)bis(prop-1-ene-1-yl-3-ylidene)bis(2-methoxyphenol)]
- LPS-induced NO production ([1]; LPS-activated BV-2 cells): strongly inhibited
- IC50 ([1]; Mus musculus, BV-2, 100 ng/mL LPS, 24 h, Griess reaction, read-out: IC50, concentration that caused 50% inhibition of NO production in LPS-activated BV-2 cells): 12.5 µM
- Phosphorylation of ERK [2]: did not alter
- Concentration of apoptotic and necrotic N2a cells [3]: decrease
